From a melting point compilation (Tetko et al.; mined from patent text by program, amines drawn as free bases though some values may be those of a salt)

| SMILES | melting point |
| --- | --- |
| COC(=O)CN(C)c1cc(-c2ccc(Cl)cc2)on1 | 141 °C |
| COc1ccc2c(c1)C(=O)c1ccc(OC)cc1C2(Cc1ccnc(F)c1)Cc1ccnc(F)c1 | 151 to 152 °C |
| Clc1nc(N2CC3CCC(CC3)C2)nc(N2CC3CCC(CC3)C2)n1 | 195 to 200 °C |
| O=c1[nH]cnc2ccc(-c3cccnc3)cc12 | 240 to 246 °C |
| CCS(=O)c1ccc(-c2nc3n(c2-c2ccncc2)CCC3)cc1 (centres undefined) | 108 to 110 °C |
| COc1ccc2c(c1)CCC(=C(O)C(F)F)C2=O | 52 to 54 °C |
| O=Cc1cccc2cc3ccccc3cc12 | 126 to 128 °C |
| Nc1cccc(Sc2ccc3c(c2)OCC(=O)N3)c1 | 181 to 182 °C |
| Cc1cccc(-c2nc(-c3ccc(F)cc3)sc2-c2ccnc(N)c2)c1 | 160 to 162 °C |
| CCOC(=O)N(c1cccc(C(F)(F)F)c1)c1ccccc1-n1nc(C(=O)O)nc1CCl | 100 to 108 °C |
| CC1(C)CC(=O)c2c(Oc3ccccc3)sc(-c3cc[nH]n3)c2C1 | 232 to 234 °C |
| O=C(N[C@H](Cc1ccccc1C(F)(F)F)[C@@H](O)c1ccc(F)cc1)c1cccc2ccccc12 (racemic) | 193 to 194 °C |
| O=C1N(Cc2ccc(Cl)s2)c2ccccc2C12COc1ccc(OCc3ccccc3)cc12 (centres undefined) | 132 to 135 °C |
| CN1CC(C(Oc2ccccc2N)c2ccccc2)OCC1=O (centres undefined) | 167 to 170 °C |
| O=c1nc(NCc2ccc(Cl)cc2)n2c3c1cnn3C(c1cccc(C(F)(F)F)c1)=CC2 | 281 to 282 °C |
| CCOC(=O)CCCn1c(C(=O)NCc2nnc(C)n2-c2sc(CC)cc2C(=O)c2ccccc2Cl)cc2cc(F)ccc21 | 127 to 128 °C |
| COC(=O)C1(C(N)=O)OC1c1ccccc1 (centres undefined) | 175 to 177 °C |
| CSc1nc(N)c(C#N)c(N2CCc3ccccc3CC2)n1 | > 200 °C |
| CCCCOc1ccc2cc(C(C)C(=O)O)ccc2c1 (centres undefined) | 125 to 127 °C |
| c1ccc(C(c2ccnc3ccccc23)n2ccnc2)cc1 (centres undefined) | 143 °C |
| O=P1(c2ccccc2)OCc2ccccc21 (centres undefined) | 99 to 101 °C |
| CCCCc1cnc(C(N)=O)cc1N | 103 to 105 °C |
| CC(=O)c1ccc(-c2cnn3c(O)ncnc23)cc1 | > 300 °C |
| O=C(Nc1ccc(C(F)(F)F)cc1)N1CCC(c2ccccc2)C(c2ccccc2)=N1 (centres undefined) | 171 to 173 °C |
| COc1cccc2c1CCC1=C2CC(=O)N1 | 220 to 222 °C |
| CC(=O)c1c(-c2ccc(F)cc2)sc(-c2ccncc2)c1C | 116 to 118 °C |

| SMILES | melting point |
| --- | --- |
| O=C(C=Cc1ccco1)NCCCCCC(=O)NO | 151 to 152 °C |
| COc1ccc(NC(=O)c2ccc(OC)c(NC(=S)Nc3cc(Cl)cc(Cl)c3)c2)cc1 | 175 to 182 °C |
| CCOC(=O)/C=C(C)/C=C/C1=C(c2ccc3c(c2)C(C)(C)CCC3(C)C)CCC1 | 83 to 86 °C |
| Cc1cn(C2CCN(c3c(F)c(C)c4c(=O)c(C(=O)O)cn(C5CC5)c4c3F)C2)nn1 (centres undefined) | 232 to 234 °C |
| Cc1noc2cc3c(cc12)C1(CO3)C(=O)N(Cc2ccc(-c3cc(N)n[nH]3)cc2)c2ccccc21 (centres undefined) | 191 to 195 °C |
| CC(=O)NC(=O)CSC(c1ccccc1)(c1ccccc1)c1ccccc1 | 147 to 149 °C |
| Nc1c2c(nc3cccc(Cl)c13)C(=O)CCC2 | 205 °C |
| CC(C)(C)c1ccc(C(=O)N[C@H]2CC[C@H](CCN3CCN(c4nccc5c4CCO5)CC3)CC2)cc1 | 186 °C |
| CC(C)OC(=O)c1cc(-n2c(=O)[nH]c3c(c2=O)CCC3)c(F)cc1Br | 214 to 216 °C |
| Cc1ccc(C=C(C=O)C(C=O)=Cc2ccc(C)cc2)cc1 | 177 to 178 °C |
| O=C1Nc2cc(F)ccc2C1c1ncnc2c1cnn2C1CCCCC1 (centres undefined) | 277 to 280 °C |
| COc1ccc(C2C=C3CN(C)CCC3C3C(=O)N(C)C(=O)C23)cc1 (centres undefined) | 129 to 130 °C |
| O=C(O)Cc1c(C(=O)c2cc3c(cn2)CCCC3)[nH]c2cc(Cl)ccc12 | 225 °C |
| O=C(O)c1noc(-c2cnccc2C(F)(F)F)n1 | 157 to 159 °C |
| O=C(c1ccc(F)cc1)c1nc[nH]n1 | 225 to 230 °C |
| CCOC(=O)c1nc2ccc(Cl)nn2c1C | 170 to 171 °C |
| CC(C)(C)CNc1cc(NCC(C)(C)C)nc(Cl)n1 | 178 to 185 °C |
| Cc1oc(-c2ccc(Cl)cc2)nc1COc1cccc(/C=C/C(C)N(O)C(N)=O)c1 (centres undefined) | 98 to 99 °C |
| CCn1c(C)nc2cc(C(F)(F)F)c(OC)cc21 | 127 to 130 °C |
| Nc1noc(-c2ccc(CN3CCCCCC3)s2)n1 | 135 to 136 °C |
| CC(=O)Nc1ccccc1C(=O)NCCN1CCC(Nc2nc3ccccc3n2Cc2ccc(F)cc2)CC1 | 171 °C |
| C#CCn1cc(C#N)c(C=O)c1 | 114 °C |
| O=C(O)Cc1c(C(=O)O)c2cc(Oc3ccc(C(F)(F)F)cc3)ccc2n1-c1cccc(Cl)c1 | 236 to 238 °C |
| CC1(C)CC(=C(c2ccc(O)cc2)c2ccc(-c3ccccc3CO)cc2)CC(C)(C)C1 | 171 to 172 °C |
| O=C(O)c1ccc(N2CCOCC2)cc1C(=O)O | 178 to 180 °C |
| COC(=O)N1CCc2ccc(C(=O)CCC3CCN(C(=O)c4ccccc4)CC3)cc2CC1 | 120 to 123 °C |

| SMILES | melting point |
| --- | --- |
| C[C@H]1CCCC(C)(C)[C@@H]1C(=O)c1ccc(C(F)(F)F)cc1 | 16 to 20 °C |
| CCCCCCCOc1ccc(C(=O)O)c(C)c1 | 74 to 76 °C |
| CN(C)c1ccc(-c2cc(-c3ccnc4c(C(=O)c5cccs5)cnn34)ccc2F)cc1 | 219 to 221 °C |
| O=Cc1cccc(C=Cc2ccccc2)c1 | 90 °C |
| CC(C)CCCC(C)C1CCC2C3CC=C4CC(Oc5ccc(N)cc5N)CCC4(C)C3CCC12C (centres undefined) | 159 to 163 °C |
| BrCc1nsc2nc3ccccc3n12 | 242 to 244 °C |
| Cn1c(=O)cc(-c2cccc(Cl)c2)c2cccnc21 | 168 to 170 °C |
| O=C(c1ccccc1)c1ncc(=O)n(CC(F)(F)F)n1 | 174 to 175 °C |
| CCOC(=O)c1cc2c(cn1)[nH]c1cccc(Oc3ncccn3)c12 | 273 to 275 °C |
| Cc1ccc(S(=O)(=O)N2CCC[C@H](CBr)c3ccccc32)cc1 | 110 to 111 °C |
| Cc1cc(-c2sc(N3CCN(Cc4ccc(F)cc4)C3=O)nc2C)n[nH]1 | 218 to 221 °C |
| CC1Cc2cc3c(cc2C(c2ccc([N+](=O)[O-])cc2)=NN1C1=NC(=O)CCS1)OCO3 (centres undefined) | 220 to 221 °C |
| CCN(C)C(=O)NC(=O)Nc1ccccc1 | 157 to 159 °C |
| CCOC(=O)C=C[C@H](Cc1ccc(-c2ccccc2)cc1)NC(=O)OC(C)(C)C | 91 to 94 °C |
| COc1ccc2c(c1)C13CCN(C)C(C2)C1(OC)CCC(=O)C3 (centres undefined) | 152 to 156 °C |
| COc1cc(OC)c(CSC(C)(C)CC(=O)O)c(OC)c1 | 103 to 105 °C |
| COc1c(C)c(OC(=O)c2c(C)c(C)c(OCCCOc3ccc(C(N)=O)cc3)c(C)c2OC)c(C)c(C)c1C(N)=O | 284 to 286 °C |
| OC[C@@H](O)COc1ccc(OCc2ccccc2)cc1 | 125 to 126 °C |
| Cn1c(I)nc2c(C(F)(F)F)nc(NCCc3ccccc3)nc21 | 139 to 142 °C |
| O=C1C2CCCCN2C(=O)N1c1ccccc1 (centres undefined) | 186 to 187 °C |
| CN(C)CCOc1ccc2c(c1)C(c1ccccc1)CC(=O)N2 (centres undefined) | 133 to 135 °C |
| CC(C(=O)O)c1ccc(-c2ccccc2)c(O)c1 (centres undefined) | 112 to 119 °C |
| Cc1nc(NC(=O)c2cnn3c(C(F)F)cc(-c4ccc(C(F)(F)F)cc4)nc23)sc1S(=O)(=O)NC(C)(CO)CO | 248 °C |
| NC(=O)c1c(-c2cnccn2)ssc1=S | 267 °C |
| O=C(c1ccc(-c2ccccn2)cc1)N1Cc2cccn2Cc2ccccc21 | 170 to 172 °C |
| CC12C=CC(C)(CC(=O)C1)O2 | 62 to 63 °C |

| SMILES | melting point |
| --- | --- |
| CC1=C(C(=O)OCC(C)C)C(c2cccc([N+](=O)[O-])c2)c2c(N)nc(N)nc2N1 (centres undefined) | 130 °C |
| COc1c(CC(=O)O)cccc1Oc1ccccc1C | 90 to 92 °C |
| CC(C)Cc1ccc(C(F)C(=O)O)cc1 (centres undefined) | 64 to 66 °C |
| O=[N+]([O-])c1cccnc1Nc1ccc(O)cc1 | 143 to 144 °C |
| C=CCNc1cccnc1S(N)(=O)=O | 134 to 135 °C |
| O=C1C(=O)c2ccccc2C2=C1SCC1(CCN(CCc3ccccc3)CC1)O2 | 117 to 118 °C |
| C=CCNC(=O)C=Cc1cccc(F)c1 | 84.5 to 87 °C |
| CC(C)C[C@H](NC(=O)OCC1CC=CCC1)C(=O)N[C@@H](Cc1ccccc1)C(=O)CSCc1ccco1 (some centres undefined) | 85 to 87 °C |
| C[C@@H]1N=C(c2ccccc2)c2cc(C#CCCCC(=O)O)ccc2N(C)C1=O | 62 to 63 °C |
| COc1cccc2c(Nc3cccc(N(C)C)c3)c(C#N)cnc12 | 222 to 225 °C |
| CN1CCN(c2cccc(Nc3ncc4ccc(-c5cn[nH]c5)n4n3)c2)CC1 | 195 °C |
| CCCCc1oc2ccccc2c1-c1ncc(-c2ccc3cc(OC)ccc3c2)o1 | 169 to 171 °C |
| NS(=O)(=O)OCCc1ccccn1 | 89 to 91 °C |
| CC[C@H]1CC[C@H](c2ccc(CCc3ccc(OC(F)F)cc3)cc2)CC1 | 51 °C |
| c1cc(N2CCCCC2)ccc1OC12CC3CC(CC(C3)C1)C2 | 72 to 73.5 °C |
| CC(C)(C)OC(=O)N[C@H](CC(=O)OCc1ccccc1)C(=O)N[C@H](COC(=O)OCc1ccccc1)c1ccccc1 | 105 to 106 °C |
| Cc1nnc2ccc(-c3ccsc3)nn12 | 154 to 156 °C |
| COC(=O)c1ccc(C(=O)C#Cc2cc(-c3cccs3)c(OC)cc2OC)cc1 | 198 to 200 °C |
| Cc1c(-c2ccccc2)oc2c(CSCCCl)cccc2c1=O | 82 to 83 °C |
| Cc1c(-c2ccccc2)oc2c(C(=O)OCC3CO3)cccc2c1=O (centres undefined) | 103 to 105 °C |
| NS(=O)(=O)c1cc(NC(=O)c2cnn3c(C(F)(F)F)cc(-c4ccc(Cl)cc4)nc23)c(Cl)s1 | 329 °C |
| NC(=O)Cc1nnc(S)o1 | 160 to 163 °C |
| Cn1cc(C(=O)C(C)(C)C)c(=O)c(-c2cccc(C(F)(F)F)c2)c1 | 86 to 88 °C |
| COc1ccc(-c2nc3ccc(O)cc3[nH]2)cc1C12CC3CC(CC(C3)C1)C2 | 230 °C |
| CCOC(=O)c1cc2c(Cl)ncnc2[nH]1 | 219 to 221 °C |
| CSC(=CC(=O)c1cccc(C(F)(F)F)c1)SC | 89.5 °C |
